Experimental data from US11541107B2, “Peptides and T cells for use in immunotherapeutic treatment of various cancers” (Immatics Biotechnologies GmbH, priority 2015, dated 2023).

Tested on: HLA-A*24
Assay: MHC binding assay, UV-ligand exchange with beta2m ELISA, HLA-A*24
Design: species or system human
Conditions: binding to HLA-A*24 ranged by peptide exchange yield (UV-ligand exchange, beta2m ELISA)
Excerpt: Candidate peptides for T cell based therapies according to the present invention were further tested for their MHC binding capacity (affinity). The individual peptide-MHC complexes were produced by UV-ligand exchange, where a UV-sensitive peptide is cleaved upon UV-irradiation, and exchanged with the peptide of interest as analyzed. Only peptide candidates that can effectively bind and stabilize the peptide-receptive MHC molecules prevent dissociation of the MHC complexes. To determine the yield of the exchange reaction, an ELISA was performed based on the detection of the light chain (ß2 m) of stabilized MHC complexes. The assay was performed as generally described in Rodenko et al. (Rodenko et al., 2006).
96 well MAXISorp plates (NUNC) were coated over night with 2 ug/ml streptavidin in PBS at room temperature, washed 4× and blocked for 1 h at 37° C. in 2% BSA containing blocking buffer. […] Peptide-MHC monomers of the UV-exchange reaction were diluted 100 fold in blocking buffer. Samples were incubated for 1 h at 37° C., washed four times, incubated with 2 ug/ml HRP conjugated anti-β2 m for 1h at 37° C., washed again and detected with TMB solution that is stopped with […]. Absorption was measured at 450 nm. Candidate peptides that show a high exchange yield (preferably higher than 50%, most preferred higher than 75%) are generally preferred for a generation and production of antibodies or fragments thereof, and/or T cell receptors or fragments thereof, as they show sufficient avidity to the MHC molecules and prevent dissociation of the MHC complexes.

| Peptide exchange | Substance |
| --- | --- |
| ++++ (>=75% = ++++) | 293 (VYPHFSTTNLI; listed as Homo sapiens) [compound 293] |
| ++++ (>=75% = ++++) | 379 (VFIAQGYTL; listed as Homo sapiens) [compound 379] |
| ++ (20%-49% = ++) | 367 (LYQDHMQYI; listed as Homo sapiens) [compound 367] |
| ++ (20%-49% = ++) | 309 (KYYRQTLLF; listed as Homo sapiens) [compound 309] |
| +++ (50%-75% = +++) | 342 (NYAFLHRTL; listed as Homo sapiens) [compound 342] |
| +++ (50%-75% = +++) | 349 (QYSIISNVF; listed as Homo sapiens) [compound 349] |
| +++ (50%-75% = +++) | 378 (VYIAELEKI; listed as Homo sapiens) [compound 378] |
| ++++ (>=75% = ++++) | 292 (FYPQIINTF; listed as Homo sapiens) [compound 292] |
| +++ (50%-75% = +++) | 386 (TFSDVEAHF; listed as Homo sapiens) [compound 386] |
| +++ (50%-75% = +++) | 310 (IYAPTLLVF; listed as Homo sapiens) [compound 310] |
| +++ (50%-75% = +++) | 355 (IYVTGGHLF; listed as Homo sapiens) [compound 355] |
| +++ (50%-75% = +++) | 343 (NYLGGTSTI; listed as Homo sapiens) [compound 343] |
| +++ (50%-75% = +++) | 377 (QYTPHSHQF; listed as Homo sapiens) [compound 377] |
| ++ (20%-49% = ++) | 371 (AYSHLRYVF; listed as Homo sapiens) [compound 371] |
| +++ (50%-75% = +++) | 304 (EYNEVANLF; listed as Homo sapiens) [compound 304] |
| +++ (50%-75% = +++) | 348 (IYLEHTESI; listed as Homo sapiens) [compound 348] |
| +++ (50%-75% = +++) | 287 (IYNPNLLTASKF; listed as Homo sapiens) [compound 287] |
| ++++ (>=75% = ++++) | 313 (KYTHFIQSF; listed as Homo sapiens) [compound 313] |
| ++ (20%-49% = ++) | 374 (VFLPRVTEL; listed as Homo sapiens) [compound 374] |
| +++ (50%-75% = +++) | 316 (VYFEGSDFKF; listed as Homo sapiens) [compound 316] |
| +++ (50%-75% = +++) | 368 (KYQNVKHNL; listed as Homo sapiens) [compound 368] |
| +++ (50%-75% = +++) | 366 (QYLELAHSL; listed as Homo sapiens) [compound 366] |
| +++ (50%-75% = +++) | 302 (LYLPVHYGF; listed as Homo sapiens) [compound 302] |
| ++++ (>=75% = ++++) | 286 (SYGTILSHI; listed as Homo sapiens) [compound 286] |
| +++ (50%-75% = +++) | 361 (TYADIGGLDNQI; listed as Homo sapiens) [compound 361] |

Continued, substance first:

| Substance | Peptide exchange |
| --- | --- |
| 165 (EYFTPLLSGQF; listed as Homo sapiens) [compound 165] | +++ (50%-75% = +++) |
| 242 (VYGEPRELL; listed as Homo sapiens) [compound 242] | +++ (50%-75% = +++) |
| 241 (SYVKVLHHL; listed as Homo sapiens) [compound 241] | +++ (50%-75% = +++) |
| 230 (TYGMVMVTF; listed as Homo sapiens) [compound 230] | +++ (50%-75% = +++) |
| 266 (KYTDWTEFL; listed as Homo sapiens) [compound 266] | +++ (50%-75% = +++) |
| 218 (LYSELNKWSF; listed as Homo sapiens) [compound 218] | +++ (50%-75% = +++) |
| 261 (GYIKLINFI; listed as Homo sapiens) [compound 261] | ++++ (>=75% = ++++) |
| 202 (RYVEGIVSL; listed as Homo sapiens) [compound 202] | +++ (50%-75% = +++) |
| 117 (IYLSDLTYI; listed as Homo sapiens) [compound 117] | +++ (50%-75% = +++) |
| 245 (LYPQLFVVL; listed as Homo sapiens) [compound 245] | +++ (50%-75% = +++) |
| 235 (VYKDSIYYI; listed as Homo sapiens) [compound 235] | +++ (50%-75% = +++) |
| 254 (KYLESSATF; listed as Homo sapiens) [compound 254] | +++ (50%-75% = +++) |
| 263 (RYILENHDF; listed as Homo sapiens) [compound 263] | +++ (50%-75% = +++) |
| 178 (NYSSAVQKF; listed as Homo sapiens) [compound 178] | +++ (50%-75% = +++) |
| 249 (RYHPTTCTI; listed as Homo sapiens) [compound 249] | ++++ (>=75% = ++++) |
| 209 (AFIETPIPLF; listed as Homo sapiens) [compound 209] | ++++ (>=75% = ++++) |
| 267 (SFLNIEKTEILF; listed as Homo sapiens) [compound 267] | ++ (20%-49% = ++) |
| 134 (AYIPTPIYF; listed as Homo sapiens) [compound 134] | +++ (50%-75% = +++) |
| 227 (IYRFITERF; listed as Homo sapiens) [compound 227] | +++ (50%-75% = +++) |
| 118 (KYLNSVQYI; listed as Homo sapiens) [compound 118] | +++ (50%-75% = +++) |
| 226 (MYLKLVQLF; listed as Homo sapiens) [compound 226] | ++ (20%-49% = ++) |
| 143 (KYIFQLNEI; listed as Homo sapiens) [compound 143] | +++ (50%-75% = +++) |
| 259 (YFIKSPPSQLF; listed as Homo sapiens) [compound 259] | ++ (20%-49% = ++) |
| 236 (VYLPKIPSW; listed as Homo sapiens) [compound 236] | +++ (50%-75% = +++) |

| Substance | Peptide exchange |
| --- | --- |
| 264 (LYTETRLQF; listed as Homo sapiens) [compound 264] | ++++ (>=75% = ++++) |
| 146 (NYYERIHAL; listed as Homo sapiens) [compound 146] | +++ (50%-75% = +++) |
| 125 (VFSRDFGLLVF; listed as Homo sapiens) [compound 125] | +++ (50%-75% = +++) |
| 199 (SYLNHLNNL; listed as Homo sapiens) [compound 199] | +++ (50%-75% = +++) |
| 144 (VFASLPGFLF; listed as Homo sapiens) [compound 144] | ++++ (>=75% = ++++) |
| 234 (SYLPAIWLL; listed as Homo sapiens) [compound 234] | +++ (50%-75% = +++) |
| 155 (IYKWITDNF; listed as Homo sapiens) [compound 155] | ++++ (>=75% = ++++) |
| 121 (RYGLPAAWSTF; listed as Homo sapiens) [compound 121] | +++ (50%-75% = +++) |
| 196 (GYIRGSWQF; listed as Homo sapiens) [compound 196] | ++++ (>=75% = ++++) |
| 228 (IYQYVADNF; listed as Homo sapiens) [compound 228] | +++ (50%-75% = +++) |
| 116 (AYVIAVHLF; listed as Homo sapiens) [compound 116] | ++++ (>=75% = ++++) |
| 100 (VYIESRIGTSTSF; listed as Homo sapiens) [compound 100] | +++ (50%-75% = +++) |
| 127 (QYFTGNPLF; listed as Homo sapiens) [compound 127] | +++ (50%-75% = +++) |
| 223 (TFITQSPLL; listed as Homo sapiens) [compound 223] | ++++ (>=75% = ++++) |
| 225 (TYTNTLERL; listed as Homo sapiens) [compound 225] | +++ (50%-75% = +++) |
| 257 (IFIDNSTQPLHF; listed as Homo sapiens) [compound 257] | +++ (50%-75% = +++) |
| 272 (RYVFPLPYL; listed as Homo sapiens) [compound 272] | ++++ (>=75% = ++++) |
| 231 (AFADVSVKF; listed as Homo sapiens) [compound 231] | ++++ (>=75% = ++++) |
| 244 (VHFEDTGKTLLF; listed as Homo sapiens) [compound 244] | +++ (50%-75% = +++) |
| 258 (AYAQLGYLL; listed as Homo sapiens) [compound 258] | +++ (50%-75% = +++) |
| 229 (IYQFVADSF; listed as Homo sapiens) [compound 229] | +++ (50%-75% = +++) |
| 284 (DYLKDPVTI; listed as Homo sapiens) [compound 284] | +++ (50%-75% = +++) |
| 171 (NYEDHFPLL; listed as Homo sapiens) [compound 171] | +++ (50%-75% = +++) |
| 112 (IYNFVESKL; listed as Homo sapiens) [compound 112] | +++ (50%-75% = +++) |
